#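 Compound exposure: 48 hours, 5 concentrations, 96-well plates. GI50 = concentration required for 50% inhibition of growth. The concentration for full growth arrest is given as TGI.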
# Columns and labels:
# Assay in all cases: inhibition of tumour cell growth, NCI panel, 48 h
# HL-60(TB) leukemia = system: HL-60(TB) leukemia
# COLO 205 colon = system: COLO 205 colon
# OVCAR-5 ovarian = system: OVCAR-5 ovarian
# HOP-92 NSCLC = system: HOP-92 NSCLC
# U251 CNS = system: U251 CNS
# HCT-15 colon = system: HCT-15 colon
# HOP-62 NSCLC = system: HOP-62 NSCLC
# HCC-2998 colon = system: HCC-2998 colon
# SF-295 CNS = system: SF-295 CNS
# OVCAR-4 ovarian = system: OVCAR-4 ovarian
# LOX IMVI melanoma = system: LOX IMVI melanoma
# KM12 colon = system: KM12 colon
# NCI-H460 lung = system: NCI-H460 lung
# HCT-116 colon = system: HCT-116 colon
# NCI/ADR-RES ovarian = system: NCI/ADR-RES ovarian
# SF-539 CNS = system: SF-539 CNS
# CCRF-CEM leukemia = system: CCRF-CEM leukemia
# NCI-H522 lung = system: NCI-H522 lung
# SW-620 colon = system: SW-620 colon
# OVCAR-8 ovarian = system: OVCAR-8 ovarian
# UO-31 renal = system: UO-31 renal
# NCI-H226 lung = system: NCI-H226 lung
# DU-145 prostate = system: DU-145 prostate
# SK-MEL-28 melanoma = system: SK-MEL-28 melanoma
# SNB-19 CNS = system: SNB-19 CNS
# A549 NSCLC = system: A549 NSCLC
# MDA-MB-231 breast = system: MDA-MB-231 breast
# MCF7 breast = system: MCF7 breast
# UACC-257 melanoma = system: UACC-257 melanoma
# 786-0 renal = system: 786-0 renal
# MOLT-4 leukemia = system: MOLT-4 leukemia
# SN12C renal = system: SN12C renal
# NCI-H23 lung = system: NCI-H23 lung
# SK-MEL-5 melanoma = system: SK-MEL-5 melanoma
# T-47D breast = system: T-47D breast
# HT29 colon = system: HT29 colon
# MDA-MB-435 = system: MDA-MB-435
# PC-3 prostate = system: PC-3 prostate
# TK-10 renal = system: TK-10 renal
# OVCAR-3 ovarian = system: OVCAR-3 ovarian
# SR leukemia = system: SR leukemia
# ACHN renal = system: ACHN renal
# IGROV1 ovarian = system: IGROV1 ovarian
# BT-549 breast = system: BT-549 breast
# RPMI-8226 leukemia = system: RPMI-8226 leukemia
# M14 melanoma = system: M14 melanoma
# HS 578T breast = system: HS 578T breast
# RXF 393 renal = system: RXF 393 renal
# CAKI-1 renal = system: CAKI-1 renal
# MALME-3M melanoma = system: MALME-3M melanoma
# SNB-75 CNS = system: SNB-75 CNS
# UACC-62 melanoma = system: UACC-62 melanoma
# EKVX NSCLC = system: EKVX NSCLC
# SK-MEL-2 melanoma = system: SK-MEL-2 melanoma
# SF-268 CNS = system: SF-268 CNS
# K-562 leukemia = system: K-562 leukemia
# A498 renal = system: A498 renal
smiles,measurement,setting,value
COc1ccc2sc3c(NCCCN(C)C)nc4ccccc4c3c(=O)c2c1,GI50,HL-60(TB) leukemia,1.88 µM
same,TGI,HL-60(TB) leukemia,3.91 µM
same,GI50,COLO 205 colon,1.58 µM
same,TGI,COLO 205 colon,3.52 µM
same,GI50,OVCAR-5 ovarian,1.76 µM
same,TGI,OVCAR-5 ovarian,3.23 µM
same,GI50,HOP-92 NSCLC,1.03 µM
same,TGI,HOP-92 NSCLC,2.47 µM
same,GI50,U251 CNS,1.53 µM
same,TGI,U251 CNS,3.27 µM
same,GI50,HCT-15 colon,1.36 µM
same,TGI,HCT-15 colon,2.7 µM
same,GI50,HOP-62 NSCLC,1.6 µM
same,TGI,HOP-62 NSCLC,3.2 µM
same,GI50,HCC-2998 colon,1.7 µM
same,TGI,HCC-2998 colon,3.26 µM
same,GI50,SF-295 CNS,1.82 µM
same,TGI,SF-295 CNS,3.27 µM
same,GI50,OVCAR-4 ovarian,1.8 µM
same,TGI,OVCAR-4 ovarian,3.82 µM
same,GI50,LOX IMVI melanoma,1.48 µM
same,TGI,LOX IMVI melanoma,2.89 µM
same,GI50,KM12 colon,1.68 µM
same,TGI,KM12 colon,3.18 µM
same,GI50,NCI-H460 lung,1.54 µM
same,TGI,NCI-H460 lung,3.03 µM
same,GI50,HCT-116 colon,1.57 µM
same,TGI,HCT-116 colon,3.01 µM
same,GI50,NCI/ADR-RES ovarian,1.64 µM
same,TGI,NCI/ADR-RES ovarian,3.28 µM
same,GI50,SF-539 CNS,1.63 µM
same,TGI,SF-539 CNS,3.06 µM
same,GI50,CCRF-CEM leukemia,1.57 µM
same,TGI,CCRF-CEM leukemia,3.67 µM
same,GI50,NCI-H522 lung,1.78 µM
same,TGI,NCI-H522 lung,3.46 µM
same,GI50,SW-620 colon,1.55 µM
same,TGI,SW-620 colon,3.04 µM
same,GI50,OVCAR-8 ovarian,1.7 µM
same,TGI,OVCAR-8 ovarian,3.62 µM
same,GI50,UO-31 renal,1.47 µM
same,TGI,UO-31 renal,2.84 µM
same,GI50,NCI-H226 lung,1.67 µM
same,TGI,NCI-H226 lung,3.34 µM
same,GI50,DU-145 prostate,1.66 µM
same,TGI,DU-145 prostate,3.07 µM
same,GI50,SK-MEL-28 melanoma,1.78 µM
same,TGI,SK-MEL-28 melanoma,3.2 µM
same,GI50,SNB-19 CNS,1.64 µM
same,TGI,SNB-19 CNS,3.06 µM
same,GI50,A549 NSCLC,1.75 µM
same,TGI,A549 NSCLC,3.74 µM
same,GI50,MDA-MB-231 breast,1.38 µM
same,TGI,MDA-MB-231 breast,2.8 µM
same,GI50,MCF7 breast,1.74 µM
same,TGI,MCF7 breast,3.4 µM
same,GI50,UACC-257 melanoma,1.81 µM
same,TGI,UACC-257 melanoma,3.49 µM
same,GI50,786-0 renal,1.34 µM
same,TGI,786-0 renal,2.71 µM
same,GI50,MOLT-4 leukemia,1.71 µM
same,TGI,MOLT-4 leukemia,3.56 µM
same,GI50,SN12C renal,1.71 µM
same,TGI,SN12C renal,3.2 µM
same,GI50,NCI-H23 lung,1.59 µM
same,TGI,NCI-H23 lung,3.06 µM
same,GI50,SK-MEL-5 melanoma,1.73 µM
same,TGI,SK-MEL-5 melanoma,3.12 µM
same,GI50,T-47D breast,1.86 µM
same,TGI,T-47D breast,4.24 µM
same,GI50,HT29 colon,1.5 µM
same,TGI,HT29 colon,3.02 µM
same,GI50,MDA-MB-435,1.59 µM
same,TGI,MDA-MB-435,2.98 µM
same,GI50,PC-3 prostate,1.62 µM
same,TGI,PC-3 prostate,3.22 µM
same,GI50,TK-10 renal,1.81 µM
same,TGI,TK-10 renal,3.31 µM
same,GI50,OVCAR-3 ovarian,1.78 µM
same,TGI,OVCAR-3 ovarian,3.27 µM
same,GI50,SR leukemia,1.68 µM
same,TGI,SR leukemia,5.99 µM
same,GI50,ACHN renal,1.56 µM
same,TGI,ACHN renal,2.9 µM
same,GI50,IGROV1 ovarian,1.67 µM
same,TGI,IGROV1 ovarian,3.23 µM
same,GI50,BT-549 breast,5.24 µM
same,TGI,BT-549 breast,18.1 µM
same,GI50,RPMI-8226 leukemia,1.68 µM
same,TGI,RPMI-8226 leukemia,3.66 µM
same,GI50,M14 melanoma,1.78 µM
same,TGI,M14 melanoma,3.33 µM
same,GI50,HS 578T breast,1.49 µM
same,TGI,HS 578T breast,3.26 µM
same,GI50,RXF 393 renal,1.22 µM
same,TGI,RXF 393 renal,2.53 µM
same,GI50,CAKI-1 renal,1.6 µM
same,TGI,CAKI-1 renal,2.95 µM
same,GI50,MALME-3M melanoma,1.62 µM
same,TGI,MALME-3M melanoma,3.18 µM
same,GI50,SNB-75 CNS,1.42 µM
same,TGI,SNB-75 CNS,2.8 µM
same,GI50,UACC-62 melanoma,1.8 µM
same,TGI,UACC-62 melanoma,3.24 µM
same,GI50,EKVX NSCLC,1.51 µM
same,TGI,EKVX NSCLC,2.93 µM
same,GI50,SK-MEL-2 melanoma,1.76 µM
same,TGI,SK-MEL-2 melanoma,3.32 µM
same,GI50,SF-268 CNS,1.67 µM
same,TGI,SF-268 CNS,3.35 µM
same,GI50,K-562 leukemia,1.8 µM
same,TGI,K-562 leukemia,4.71 µM
same,GI50,A498 renal,1.38 µM
same,TGI,A498 renal,2.78 µM

# Reference: PubChem BioAssay (NCI)
